Test results published in ChEMBL document CHEMBL4507263, “Data for DCP probe BAY-474” (2021).

Tests used:
[1] = biological target: Delta-type opioid receptor (Homo sapiens) (UniProt P41143); conditions: Compound concentration 10.0 uM
[2] = biological target: Protein kinase C iota type (Homo sapiens) (UniProt P41743); test: PKCiota (h) Millipore kinase activity assay; conditions: Compound concentration 1.0 uM
[3] = biological target: Tyrosine-protein kinase Lyn (Homo sapiens) (UniProt P07948); test: Lyn (h) Millipore kinase activity assay; conditions: Compound concentration 1.0 uM
[4] = biological target: Protein kinase C epsilon type (Homo sapiens) (UniProt Q02156); test: PKCepsilon (h) Millipore kinase activity assay; conditions: Compound concentration 1.0 uM
[5] = biological target: Serine/threonine-protein kinase D1 (Homo sapiens) (UniProt Q15139); test: PKCmu (h) Millipore kinase activity assay; conditions: Compound concentration 1.0 uM
[6] = biological target: Serine/threonine-protein kinase 17A (Homo sapiens) (UniProt Q9UEE5); test: DRAK1 (h) Millipore kinase activity assay; conditions: Compound concentration 1.0 uM
[7] = biological target: CDK9/cyclin T1 (Homo sapiens) (UniProt O60563+P50750); test: CDK9/cyclin T1 (h) Millipore kinase activity assay; format: protein-complex assay; conditions: Compound concentration 1.0 uM
[8] = biological target: Tyrosine-protein kinase receptor UFO (Homo sapiens) (UniProt P30530); test: Axl (h) Millipore kinase activity assay; conditions: Compound concentration 1.0 uM
[9] = biological target: Death-associated protein kinase 1 (Homo sapiens) (UniProt P53355); test: DAPK1 (h) Millipore kinase activity assay; conditions: Compound concentration 1.0 uM
[10] = biological target: D(1A) dopamine receptor (Homo sapiens) (UniProt P21728); conditions: Compound concentration 10.0 uM
[11] = biological target: Vascular endothelial growth factor receptor 3 (Homo sapiens) (UniProt P35916); test: Flt4 (h) Millipore kinase activity assay; conditions: Compound concentration 1.0 uM
[12] = biological target: Interleukin-1 receptor-associated kinase 4 (Homo sapiens) (UniProt Q9NWZ3); test: IRAK4 (h) Millipore kinase activity assay; conditions: Compound concentration 1.0 uM
[13] = biological target: Mitogen-activated protein kinase kinase kinase kinase 2 (Homo sapiens) (UniProt Q12851); test: GCK (h) Millipore kinase activity assay; conditions: Compound concentration 1.0 uM
[14] = biological target: Aurora kinase A (Homo sapiens) (UniProt O14965); test: Aurora-A( h) Millipore kinase activity assay; conditions: Compound concentration 1.0 uM
[15] = biological target: Acetylcholine receptor subunit alpha (Homo sapiens) (UniProt P02708); test: Inhibition of Nicotinic Acetylcholine D1, Bungarotoxin at 10 µM in the Eurofins-Panlabs radioligand binding assay (Eurofins_assay_258700); conditions: Compound concentration 10.0 uM
[16] = species on record: Rattus norvegicus; test: Testosterone Eurofins-Panlabs radioligand binding assay; parameters: ligand concentration 1.5 nM; conditions: Compound concentration 10.0 uM
[17] = biological target: Protein kinase C beta type (Homo sapiens) (UniProt P05771); test: PKCbetaII (h) Millipore kinase activity assay; conditions: Compound concentration 1.0 uM
[18] = biological target: Mitogen-activated protein kinase 13 (Homo sapiens) (UniProt O15264); test: SAPK4 (h) Millipore kinase activity assay; conditions: Compound concentration 1.0 uM
[19] = biological target: Leucine-rich repeat serine/threonine-protein kinase 2 (Homo sapiens) (UniProt Q5S007); conditions: Compound concentration 1000.0 nM
[20] = biological target: G protein-coupled receptor kinase 4 (Homo sapiens) (UniProt P32298); conditions: Compound concentration 1000.0 nM
[21] = biological target: Dual specificity mitogen-activated protein kinase kinase 3 (Homo sapiens) (UniProt P46734); conditions: Compound concentration 1000.0 nM
[22] = biological target: Mitogen-activated protein kinase kinase kinase kinase 1 (Homo sapiens) (UniProt Q92918); conditions: Compound concentration 1000.0 nM
[23] = biological target: Serine/threonine-protein kinase Sgk2 (Homo sapiens) (UniProt Q9HBY8); conditions: Compound concentration 1000.0 nM
[24] = biological target: Serine/threonine-protein kinase TNNI3K (Homo sapiens) (UniProt Q59H18); conditions: Compound concentration 1000.0 nM
[25] = biological target: Beta-adrenergic receptor kinase 1 (Homo sapiens) (UniProt P25098); conditions: Compound concentration 1000.0 nM
[26] = biological target: Serine/threonine-protein kinase PAK 1 (Homo sapiens) (UniProt Q13153); conditions: Compound concentration 1000.0 nM
[27] = system: Tyrosine-protein kinase ABL1 (Homo sapiens), P00519 [F317L]; conditions: Compound concentration 1000.0 nM
[28] = biological target: 5-hydroxytryptamine receptor 6 (Homo sapiens, UniProt P50406); test: GPCRScan assay: inhibition of 5-HT6; parameters: radioligand conc. used [nm] 2.0 – 4.0, parental cells stable HEK
[29] = biological target: RAF proto-oncogene serine/threonine-protein kinase (Homo sapiens) (UniProt P04049); conditions: Compound concentration 1000.0 nM
[30] = biological target: Glycogen synthase kinase-3 alpha (Homo sapiens) (UniProt P49840); conditions: Compound concentration 1000.0 nM
[31] = system: Phosphatidylinositol 4,5-bisphosphate 3-kinase catalytic subunit alpha isoform (Homo sapiens), P42336 [M1043I]; conditions: Compound concentration 1000.0 nM
[32] = system: Phosphatidylinositol 4,5-bisphosphate 3-kinase catalytic subunit alpha isoform (Homo sapiens), P42336 [H1047L]; conditions: Compound concentration 1000.0 nM
[33] = system: Epidermal growth factor receptor (Homo sapiens), P00533 [UNDEFINED MUTATION]; conditions: Compound concentration 1000.0 nM
[34] = biological target: Serine/threonine-protein kinase D3 (Homo sapiens) (UniProt O94806); conditions: Compound concentration 1000.0 nM
[35] = biological target: Serine/threonine-protein kinase 35 (Homo sapiens) (UniProt Q8TDR2); conditions: Compound concentration 1000.0 nM
[36] = biological target: Aurora kinase C (Homo sapiens) (UniProt Q9UQB9); conditions: Compound concentration 1000.0 nM
[37] = biological target: Serine/threonine-protein kinase Nek10 (Homo sapiens) (UniProt Q6ZWH5); conditions: Compound concentration 1000.0 nM
[38] = biological target: Cyclin-dependent kinase-like 1 (Homo sapiens) (UniProt Q00532); conditions: Compound concentration 1000.0 nM
[39] = biological target: Vascular endothelial growth factor receptor 1 (Homo sapiens) (UniProt P17948); conditions: Compound concentration 1000.0 nM
[40] = system: Receptor-type tyrosine-protein kinase FLT3 (Homo sapiens), P36888 [D835V]; conditions: Compound concentration 1000.0 nM
[41] = biological target: Protein kinase C iota type (Homo sapiens) (UniProt P41743); conditions: Compound concentration 1000.0 nM
[42] = biological target: Bone morphogenetic protein receptor type-1A (Homo sapiens) (UniProt P36894); conditions: Compound concentration 1000.0 nM
[43] = biological target: Platelet-derived growth factor receptor alpha (Homo sapiens) (UniProt P16234); conditions: Compound concentration 1000.0 nM
[44] = biological target: Serine/threonine-protein kinase MARK2 (Homo sapiens) (UniProt Q7KZI7); conditions: Compound concentration 1000.0 nM
[45] = biological target: Dual specificity mitogen-activated protein kinase kinase 6 (Homo sapiens) (UniProt P52564); conditions: Compound concentration 1000.0 nM
[46] = biological target: Interferon-induced, double-stranded RNA-activated protein kinase (Homo sapiens) (UniProt P19525); conditions: Compound concentration 1000.0 nM

Sequence of Protein kinase C iota type (Homo sapiens) (P41743 whole entry): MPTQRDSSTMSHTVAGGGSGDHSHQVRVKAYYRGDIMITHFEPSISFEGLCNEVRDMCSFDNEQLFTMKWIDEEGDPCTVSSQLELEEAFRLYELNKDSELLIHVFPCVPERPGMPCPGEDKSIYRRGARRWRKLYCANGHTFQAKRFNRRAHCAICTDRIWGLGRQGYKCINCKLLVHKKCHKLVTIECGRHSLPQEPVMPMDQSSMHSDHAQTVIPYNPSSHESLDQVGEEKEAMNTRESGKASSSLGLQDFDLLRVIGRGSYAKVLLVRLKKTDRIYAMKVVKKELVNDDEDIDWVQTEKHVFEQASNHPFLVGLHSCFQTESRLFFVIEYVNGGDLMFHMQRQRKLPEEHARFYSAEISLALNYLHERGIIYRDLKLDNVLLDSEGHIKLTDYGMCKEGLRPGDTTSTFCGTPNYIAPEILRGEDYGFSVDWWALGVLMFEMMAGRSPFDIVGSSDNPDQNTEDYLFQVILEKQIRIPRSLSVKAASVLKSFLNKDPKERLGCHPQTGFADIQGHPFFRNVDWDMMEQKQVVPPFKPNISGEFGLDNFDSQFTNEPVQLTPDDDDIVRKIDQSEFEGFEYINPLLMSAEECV
Sequence of Aurora kinase C (Homo sapiens) (Q9UQB9 whole entry): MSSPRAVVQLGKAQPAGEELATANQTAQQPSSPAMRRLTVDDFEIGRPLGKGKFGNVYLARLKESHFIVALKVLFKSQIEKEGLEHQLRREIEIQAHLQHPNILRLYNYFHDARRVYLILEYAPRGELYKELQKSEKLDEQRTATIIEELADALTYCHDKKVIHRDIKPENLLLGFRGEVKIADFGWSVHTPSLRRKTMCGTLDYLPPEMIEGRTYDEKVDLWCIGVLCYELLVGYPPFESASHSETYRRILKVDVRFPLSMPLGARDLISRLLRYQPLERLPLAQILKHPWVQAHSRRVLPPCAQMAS
Sequence of Serine/threonine-protein kinase MARK2 (Homo sapiens) (Q7KZI7 whole entry): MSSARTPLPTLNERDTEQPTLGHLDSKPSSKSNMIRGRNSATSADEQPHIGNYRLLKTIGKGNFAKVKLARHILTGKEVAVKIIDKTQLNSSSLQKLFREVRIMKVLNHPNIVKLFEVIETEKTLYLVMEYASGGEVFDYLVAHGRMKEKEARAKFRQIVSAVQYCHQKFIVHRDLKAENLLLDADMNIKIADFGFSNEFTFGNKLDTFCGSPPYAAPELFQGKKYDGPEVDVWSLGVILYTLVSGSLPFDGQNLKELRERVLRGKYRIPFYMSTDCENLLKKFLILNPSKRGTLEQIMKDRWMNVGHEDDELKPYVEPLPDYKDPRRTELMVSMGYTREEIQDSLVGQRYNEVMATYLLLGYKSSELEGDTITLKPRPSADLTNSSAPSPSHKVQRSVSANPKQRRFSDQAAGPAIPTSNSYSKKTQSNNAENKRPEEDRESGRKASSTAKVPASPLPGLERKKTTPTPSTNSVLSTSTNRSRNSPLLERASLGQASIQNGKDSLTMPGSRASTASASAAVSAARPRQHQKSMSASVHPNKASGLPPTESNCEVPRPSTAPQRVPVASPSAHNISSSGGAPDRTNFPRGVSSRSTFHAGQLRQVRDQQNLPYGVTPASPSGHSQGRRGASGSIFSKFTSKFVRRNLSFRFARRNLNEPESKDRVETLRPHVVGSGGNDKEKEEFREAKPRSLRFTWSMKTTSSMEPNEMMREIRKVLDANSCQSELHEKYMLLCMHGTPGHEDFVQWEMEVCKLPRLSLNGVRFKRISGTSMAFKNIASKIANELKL
Sequence of Phosphatidylinositol 4,5-bisphosphate 3-kinase catalytic subunit alpha isoform (Homo sapiens), P42336 [M1043I] (P42336 whole entry M1043I, canonical isoform): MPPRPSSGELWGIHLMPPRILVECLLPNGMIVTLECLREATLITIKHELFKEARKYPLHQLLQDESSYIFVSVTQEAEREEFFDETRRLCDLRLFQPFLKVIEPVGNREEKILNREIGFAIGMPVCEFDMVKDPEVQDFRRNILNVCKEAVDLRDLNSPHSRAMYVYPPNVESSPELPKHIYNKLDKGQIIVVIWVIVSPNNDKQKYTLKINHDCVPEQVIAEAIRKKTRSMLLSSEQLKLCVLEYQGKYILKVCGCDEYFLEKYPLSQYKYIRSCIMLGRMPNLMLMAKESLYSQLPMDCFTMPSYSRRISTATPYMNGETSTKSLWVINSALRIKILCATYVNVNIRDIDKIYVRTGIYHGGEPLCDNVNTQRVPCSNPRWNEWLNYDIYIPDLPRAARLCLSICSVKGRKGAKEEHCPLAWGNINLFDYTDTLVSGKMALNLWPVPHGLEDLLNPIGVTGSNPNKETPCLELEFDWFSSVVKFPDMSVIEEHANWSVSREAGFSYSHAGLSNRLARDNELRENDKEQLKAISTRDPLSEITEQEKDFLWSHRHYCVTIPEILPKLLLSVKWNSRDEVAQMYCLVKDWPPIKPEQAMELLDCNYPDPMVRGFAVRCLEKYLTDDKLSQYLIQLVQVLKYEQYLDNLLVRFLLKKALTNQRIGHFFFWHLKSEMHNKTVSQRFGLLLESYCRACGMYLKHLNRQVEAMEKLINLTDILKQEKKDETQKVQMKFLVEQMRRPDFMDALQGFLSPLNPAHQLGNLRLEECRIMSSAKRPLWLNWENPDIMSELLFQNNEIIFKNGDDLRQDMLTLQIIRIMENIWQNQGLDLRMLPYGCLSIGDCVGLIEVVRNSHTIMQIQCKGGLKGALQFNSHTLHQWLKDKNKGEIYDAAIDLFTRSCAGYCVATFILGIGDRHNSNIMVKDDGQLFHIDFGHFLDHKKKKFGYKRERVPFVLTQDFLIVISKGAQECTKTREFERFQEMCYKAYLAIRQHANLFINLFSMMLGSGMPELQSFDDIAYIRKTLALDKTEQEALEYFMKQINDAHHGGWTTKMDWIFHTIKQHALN
Sequence of Acetylcholine receptor subunit alpha (Homo sapiens) (P02708 whole entry): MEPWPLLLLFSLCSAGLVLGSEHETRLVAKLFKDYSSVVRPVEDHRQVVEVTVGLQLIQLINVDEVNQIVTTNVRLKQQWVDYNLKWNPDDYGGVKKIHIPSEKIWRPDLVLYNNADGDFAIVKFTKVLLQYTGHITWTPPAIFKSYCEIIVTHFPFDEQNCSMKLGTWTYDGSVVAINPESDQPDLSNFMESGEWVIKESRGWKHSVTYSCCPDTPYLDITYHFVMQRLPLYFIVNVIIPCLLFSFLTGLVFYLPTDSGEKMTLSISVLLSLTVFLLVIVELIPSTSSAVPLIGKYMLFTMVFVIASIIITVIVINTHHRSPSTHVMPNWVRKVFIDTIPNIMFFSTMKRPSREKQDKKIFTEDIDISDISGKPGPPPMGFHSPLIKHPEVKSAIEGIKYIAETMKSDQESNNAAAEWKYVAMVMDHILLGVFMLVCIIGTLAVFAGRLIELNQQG
Sequence of RAF proto-oncogene serine/threonine-protein kinase (Homo sapiens) (P04049 whole entry): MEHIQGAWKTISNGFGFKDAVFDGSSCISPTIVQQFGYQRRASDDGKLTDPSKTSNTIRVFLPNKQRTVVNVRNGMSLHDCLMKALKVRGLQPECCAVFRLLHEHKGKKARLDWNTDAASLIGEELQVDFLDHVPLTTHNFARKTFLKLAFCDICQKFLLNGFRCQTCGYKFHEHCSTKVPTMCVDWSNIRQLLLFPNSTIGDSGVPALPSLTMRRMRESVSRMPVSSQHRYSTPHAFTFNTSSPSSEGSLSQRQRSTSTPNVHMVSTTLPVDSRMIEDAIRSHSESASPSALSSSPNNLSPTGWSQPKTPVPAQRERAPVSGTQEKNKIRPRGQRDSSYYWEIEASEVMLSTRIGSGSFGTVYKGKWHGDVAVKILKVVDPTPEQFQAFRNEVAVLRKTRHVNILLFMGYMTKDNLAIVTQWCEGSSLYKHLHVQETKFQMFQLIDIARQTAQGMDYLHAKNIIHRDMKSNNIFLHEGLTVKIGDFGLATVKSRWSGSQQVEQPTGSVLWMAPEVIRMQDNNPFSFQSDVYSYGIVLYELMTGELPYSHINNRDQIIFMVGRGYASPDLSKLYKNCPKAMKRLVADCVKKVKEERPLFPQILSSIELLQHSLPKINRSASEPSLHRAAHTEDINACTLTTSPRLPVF
Sequence of Tyrosine-protein kinase ABL1 (Homo sapiens), P00519 [F317L] (P00519 whole entry F317L): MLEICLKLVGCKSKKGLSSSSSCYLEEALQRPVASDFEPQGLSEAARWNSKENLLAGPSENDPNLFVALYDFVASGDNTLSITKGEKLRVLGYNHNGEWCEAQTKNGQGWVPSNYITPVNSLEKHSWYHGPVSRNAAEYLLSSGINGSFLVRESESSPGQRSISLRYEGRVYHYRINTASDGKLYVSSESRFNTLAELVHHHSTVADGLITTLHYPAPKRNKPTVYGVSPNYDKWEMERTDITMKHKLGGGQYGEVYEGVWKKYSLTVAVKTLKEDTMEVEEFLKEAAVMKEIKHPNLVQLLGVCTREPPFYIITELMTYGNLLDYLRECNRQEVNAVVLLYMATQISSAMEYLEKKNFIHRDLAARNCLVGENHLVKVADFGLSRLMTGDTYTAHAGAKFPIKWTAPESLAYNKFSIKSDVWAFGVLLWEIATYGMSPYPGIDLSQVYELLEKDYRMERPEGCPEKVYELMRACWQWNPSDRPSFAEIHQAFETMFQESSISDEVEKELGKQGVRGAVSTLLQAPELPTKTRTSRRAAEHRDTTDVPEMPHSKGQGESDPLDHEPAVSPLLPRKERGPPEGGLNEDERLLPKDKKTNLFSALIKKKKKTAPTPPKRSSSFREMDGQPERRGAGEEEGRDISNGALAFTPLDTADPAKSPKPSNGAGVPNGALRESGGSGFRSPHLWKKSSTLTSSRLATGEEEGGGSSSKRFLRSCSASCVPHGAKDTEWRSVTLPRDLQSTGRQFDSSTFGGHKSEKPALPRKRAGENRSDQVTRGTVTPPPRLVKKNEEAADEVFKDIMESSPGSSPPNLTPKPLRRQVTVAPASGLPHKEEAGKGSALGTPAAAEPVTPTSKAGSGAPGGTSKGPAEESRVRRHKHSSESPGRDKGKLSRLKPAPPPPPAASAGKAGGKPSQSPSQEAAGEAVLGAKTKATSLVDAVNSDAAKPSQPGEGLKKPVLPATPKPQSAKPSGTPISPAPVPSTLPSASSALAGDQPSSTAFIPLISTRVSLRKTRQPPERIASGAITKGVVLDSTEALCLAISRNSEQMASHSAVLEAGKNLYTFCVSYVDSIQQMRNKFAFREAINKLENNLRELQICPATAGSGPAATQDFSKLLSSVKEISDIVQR

Structure (SMILES): CC1=C(C#N)C(c2ccc3[nH]nc(C)c3c2)C(C#N)=C(C)N1 [BAY-474]
- inhibition [1]: 9%
- inhibition [2]: -7%
- inhibition [3]: -1%
- inhibition [4]: 26%
- inhibition [5]: 15%
- inhibition [6]: -6%
- inhibition [7]: -10%
- inhibition [8]: 12%
- inhibition [9]: 0%
- inhibition [10]: 3%
- inhibition [11]: 26%
- inhibition [12]: 0%
- inhibition [13]: 1%
- inhibition [14]: 40%
- inhibition [15]: 0%
- inhibition [16]: 12%
- inhibition [17]: 7%
- inhibition [18]: 10%

Structure (SMILES): CC1=C(C#N)[C@@H](c2ccc3[nH]nc(C)c3c2)C(C#N)=C(c2ccc(Cl)cc2)N1 [BAY-827]
- residual activity [19]: 91.7%
- residual activity [20]: 100%
- residual activity [21]: 53.5%
- residual activity [22]: 93.1%
- residual activity [23]: 100%
- residual activity [24]: 94.3%
- residual activity [25]: 88.1%
- residual activity [26]: 100%
- residual activity [27]: 100%
- Ki [28]: 674 nM
- residual activity [29]: 100%
- residual activity [30]: 100%
- residual activity [31]: 25.2%
- residual activity [32]: 100%
- residual activity [33]: 75.1%
- residual activity [34]: 100%
- residual activity [35]: 100%
- residual activity [36]: 100%
- residual activity [37]: 59.6%
- residual activity [38]: 77.1%
- residual activity [39]: 100%
- residual activity [40]: 89.7%
- residual activity [41]: 99.4%
- residual activity [42]: 98.6%
- residual activity [43]: 100%
- residual activity [44]: 100%
- residual activity [45]: 100%
- residual activity [46]: 74.1%
